These results are taken from patent US8895581B2, “1H-imidazo[4,5-c]quinolines” (Boehringer Ingelheim International GmbH, priority 2010, dated 2014).

Sequence of Recombinant human PDK1 enzyme (aa 52-556) (O15530 52-556): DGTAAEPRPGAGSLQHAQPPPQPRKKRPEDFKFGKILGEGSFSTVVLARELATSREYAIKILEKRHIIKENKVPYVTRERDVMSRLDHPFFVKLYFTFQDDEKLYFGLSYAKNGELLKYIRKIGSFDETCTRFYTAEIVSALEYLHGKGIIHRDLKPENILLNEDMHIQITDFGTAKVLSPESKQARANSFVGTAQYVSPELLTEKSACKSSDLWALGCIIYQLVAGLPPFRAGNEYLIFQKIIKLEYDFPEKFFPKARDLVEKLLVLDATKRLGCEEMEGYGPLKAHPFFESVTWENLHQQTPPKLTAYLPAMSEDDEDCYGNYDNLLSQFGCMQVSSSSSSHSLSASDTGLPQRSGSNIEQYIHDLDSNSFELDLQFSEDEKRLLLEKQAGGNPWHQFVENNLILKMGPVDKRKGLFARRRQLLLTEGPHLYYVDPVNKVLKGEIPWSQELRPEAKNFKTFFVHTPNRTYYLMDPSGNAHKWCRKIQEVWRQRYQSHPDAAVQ

The target in this assay is Recombinant human PDK1 enzyme (aa 52-556) (Homo sapiens (Human), UniProt O15530). The assay is described as follows: PDK1 kinase assay. Format: biochemical. The settings on record: 25 μM ATP solution with gamma-P33-ATP, PDKtide substrate, 90 min at RT. On the procedure: The activity of the compounds according to the invention on the kinase PDK1 which inhibits the signal transduction pathway is determined in an in vitro kinase assay with recombinantly prepared protein:
Recombinant human PDK1 enzyme (aa 52-556) linked at its N-terminal end to His6 is isolated from baculovirus-infected insect cells. Purified enzyme may be obtained for example from the University of Dundee, Scotland. The following components are combined in a well of a 96-well round-based dish (Greiner bio-one, No. 650101): • 1. 15 μL of compound to be tested in varying concentrations (e.g. starting at 10 μM, and diluted in steps of 1:5) in APT buffer (50 mM Tris/Cl pH7.5; 0.05% β-mercaptoethanol; 10 mM Mg-acetate; 0.0166% Tween 20; 3.33% DMSO) • 2. 15 μL His6-PDK1 (aa 52-556) 3.33 ng/well) and PDKtide (KTFCGTPEYLAPEVRRE […]), synthesised by Pepceuticals Limited, Nottingham, United Kingdom; 25 μM final concentration); His6-PDK1 and PDKtide are together diluted accordingly in assay buffer (50 mM tris pH 7.5, 0.05% β-mercaptoethanol, 10 mM Mg-acetate); PDKtide is present in this mixture as an 83.3 μM solution. These 30 μl are routinely incubated for 30 min at RT. • 3. 20 μL ATP solution (25 μM ATP with 1.0 μCi/well gamma-P33-ATP). The final concentration of Tween 20 is 0.005%.
The reaction is started by adding the ATP solution and the mixture is incubated for 90 min at RT. At the start of the reaction the dishes are shaken gently. The reaction is stopped by the addition of 50 μL/well of 500 mM phosphoric acid (H3PO4) and incubated for about 20 min at RT. The precipitate is transferred by harvesting onto filter plates (96-well microtitre filter plate: UniFilter GF/C; Perkin Elmer; No. 6005174), then washed 6 times with 50 mM H3PO4 and dried at 60° C. Then the plate is stuck down with sealing tape, 25 μL/well of scintillation solution (Microscint 0; Perkin Elmer; No. 6013611) are added and the amount of P33 precipitated is measured using the Wallac Betacounter. The measured data are evaluated using Graphpad Prism software.
For the molecule `CCn1c(C)nc2cnc3ccc(C#CCNC(=O)c4cncn(Cc5ccc(F)c(F)c5)c4=O)cc3c21` [III-33], the IC50 (commonly the concentration needed to halve the response being measured) was determined as 2 nM. Take `CCN1CCC(n2cnc3cnc4ccc(C#CCNC(=O)c5c(C)n(C)n(Cc6ccc(F)c(F)c6)c5=O)cc4c32)CC1` [III-20]: the IC50 worked out at 32 nM.

Turning to `CN1CC[C@H](n2cnc3cnc4ccc(C#CCNC(=O)c5cncn(Cc6ccc(F)c(F)c6)c5=O)cc4c32)C1` [I-7], the IC50 came to 18 nM. Take `CCOc1cc(C(=O)NCC#Cc2ccc3ncc4nc(C)n(C(C)C)c4c3c2)c(=O)n(Cc2ccc(F)c(F)c2)n1` [II-5]: the IC50 came to 4 nM.

On to `O=C(NCC#Cc1ccc2ncc3ncn(CCO)c3c2c1)c1cccn(Cc2ccc(F)c(F)c2)c1=O` [III-11], for which the IC50 worked out at 18 nM.

Consider `Cc1nc2cnc3ccc(C#CCNC(=O)c4c(C)n(C)n(Cc5ccc(F)c(F)c5)c4=O)cc3c2n1C(C)C` [II-16], for which the half-inhibitory concentration (IC50) amounted to 5 nM. On to `CN1CCC(n2cnc3cnc4ccc(C#CCNC(=O)c5cncn(Cc6ccc(F)c(F)c6)c5=O)cc4c32)CC1` [I-10], for which the IC50 turned out to be 2 nM. Turning to `Cc1nc2cnc3ccc(C#CCNC(=O)c4cccn(CC5CCCC5)c4=O)cc3c2n1C(C)C` [II-26], the half-inhibitory concentration (IC50) was 27 nM.

Take `Cc1nc2cnc3ccc(C#CCNC(=O)c4cccn(Cc5ccccc5)c4=O)cc3c2n1C(C)C` [II-2]: the IC50 stood at 8 nM. Turning to `CC(C)N1CCC(n2cnc3cnc4ccc(C#CCNC(=O)c5cccn(Cc6ccc(F)c(F)c6)c5=O)cc4c32)CC1` [II-35], the half-maximal inhibitory concentration (IC50) stood at 7 nM. Take `Cc1nc2cnc3ccc(C#CCNC(=O)c4cccn(CC5C[C@@H]6CC[C@H]5C6)c4=O)cc3c2n1C(C)C` (stereo partly shown) [II-23]: the 50% inhibitory concentration (IC50) stood at 15 nM.

Consider `Cc1nc2cnc3ccc(C#CCNC(=O)c4cccn(CC5CCCOC5)c4=O)cc3c2n1C(C)C` (stereo not shown) [II-29], for which the concentration for half-maximal inhibition (IC50) was determined as 202 nM. Consider `Cc1nc2cnc3ccc(C#CCNC(=O)c4cccn(CC5(O)CCCCC5)c4=O)cc3c2n1C(C)C` [II-27], for which the IC50 was found to be 1100 nM. For the molecule `CN1CC[C@@H](n2cnc3cnc4ccc(C#CCNC(=O)c5cncn(Cc6ccc(F)c(F)c6)c5=O)cc4c32)C1` [I-6], the half-inhibitory concentration (IC50) was determined as 26 nM.

Consider `Cc1c(C(=O)NCC#Cc2ccc3ncc4ncn(C5CCN(C(C)C)CC5)c4c3c2)c(=O)n(Cc2ccc(F)c(F)c2)n1C` [III-19], for which the IC50 came to 45 nM. For `CN(C)CCc1nc2cnc3ccc(C#CCNC(=O)c4cncn(Cc5ccc(F)c(F)c5)c4=O)cc3c2n1C` [V-10], the IC50 stood at 22 nM.

Take `CC(C)n1cnc2cnc3ccc(C#CCNC(=O)c4cncn(Cc5ccc(F)c(F)c5)c4=O)cc3c21` [III-32]: the IC50 was determined as 2 nM. With `Cc1nc2cnc3ccc(C#CCNC(=O)c4cccn(C[C@H]5CCCC[C@H]5O)c4=O)cc3c2n1C(C)C` [II-28], the concentration for half-maximal inhibition (IC50) stood at 221 nM. As for `Cc1nc2cnc3ccc(C#CCNC(=O)c4cncn(Cc5ccc(F)c(F)c5)c4=O)cc3c2n1CCN(C)C` [III-13], the IC50 came out at 53 nM. In the case of `Cc1nc2cnc3ccc(C#CCNC(=O)c4cncn(Cc5ccc(F)c(F)c5)c4=O)cc3c2n1C1CCCOC1` (stereo not shown) [III-28], the half-maximal inhibitory concentration (IC50) was 2 nM. As to `Cc1nc2cnc3ccc(C#CCNC(=O)c4c(C)n(C)n(C(C)c5ccc(F)c(F)c5)c4=O)cc3c2n1C(C)C` (stereo not shown) [II-15], the half-maximal inhibitory concentration (IC50) was found to be 5 nM. To `Cc1nc2cnc3ccc(C#CCNC(=O)c4cccn([C@@H](C)c5ccc(F)c(F)c5)c4=O)cc3c2n1[C@H]1CC[C@H](N(C)C)CC1` [III-23] belongs 1 nM. Turning to `Cc1nc2cnc3ccc(C#CCNC(=O)c4cc(Cl)nn(Cc5ccc(F)c(F)c5)c4=O)cc3c2n1CCc1ccccc1` [III-7], the IC50 amounted to 7 nM. Consider `CN(C)CCCc1nc2cnc3ccc(C#CCNC(=O)c4cncn(Cc5ccc(F)c(F)c5)c4=O)cc3c2n1C` [V-9], for which the IC50 is 6 nM. Consider `Cc1nc2cnc3ccc(C#CCNC(=O)c4cccn(CC5CCCCO5)c4=O)cc3c2n1C(C)C` (stereo not shown) [II-25], for which the IC50 stood at 1020 nM.
